The values below are quoted from earlier work in PMC4010828 (mBio, 2014).

The data set concerns sensitive E. coli cells.

For “microcin C (MRTGNAN; C-terminal adenylate, aminopropyl phosphoramidate) [McC]”, the “Concentration that inhibits the growth of sensitive E. coli cells” value is given as “low micromolar concentrations”.
